Source: US11332470B2, “CXCR4 inhibitors and uses thereof” (X4 Pharmaceuticals, Inc., priority 2016, dated 2022)
Read-outs that look alike come from different tables or passages of the source.

How the values were obtained:
in vitro = conditions: human, Caco-2, pH 7.4
Summary of the method: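 Compound at 10 μM in HBSS pH 7.4 dosed A-to-B and B-to-A across Caco-2 monolayers, 90 min at 37 °C, duplicates. Monolayer integrity by TEER and lucifer yellow (5 μM, fluorescence 485/535 nm); compound quantified by LC-MS/MS.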

CXCR4 (U87.CXCR4 cells) = target: T1, CXCR4 (U87.CXCR4 cells) (Homo sapiens, UniProt P61073); test: Intracellular CXCL-12-induced calcium mobilization assay (FLIPR); type: cell-based; conditions: CXCL-12 25-50 ng/mL, read-out: IC50 CXCL-12 Ca2+ flux U87.CXCR4+
T1 construct: expressed in transfected cells; host or cells: U87 (U87.CXCR4)
Summary of the method: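 U87.CXCR4 cells were loaded with 4 μM Fluo-2 AM for 45 min at 37 °C in HBSS/20 mM HEPES/0.2% BSA, pH 7.4. Calcium flux induced by CXCL-12 (25-50 ng/mL) was monitored kinetically by FLIPR fluorescence at 37 °C.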

[1] = Mouse brain uptake assay (pharmacokinetics and brain penetration after IV administration); type: in vivo, Male CD1 Mice; conditions: male, 3 mg/kg IV; for Kp / Kp uu: CD1, brain and plasma; for Kp / Kp uu / clearance / half-life: mouse; for Kp uu: read-out: Kp, uu (unbound brain/unbound plasma drug concentration ratio); for clearance / half-life: CD1, plasma; for clearance: read-out: Cl (Clearance) (converted); for half-life: read-out: t½ (half life) (converted); for AUC(0-t): CD1
Method: Example 15: Pharmacokinetics and Brain Penetration Experiment to Determine Brain and Plasma Concentrations of Compounds after IV Administration to Male CD1 Mice or Male SD Rats
The study design (9 animals) consisted of administrating the drug (IV: 3 mg/kg (5 mL/kg) via tail vein injection) and collecting samples at terminal bleeding for plasma and brain at 0.083, 0.5 and 1 h. The blood collection was performed as follows: the animal was restrained manually and approximately 150 μL blood/time point was collected into a dipotassium EDTA tube via retro orbital puncture under anesthesia with isoflurane. The blood sample was put on ice and centrifuged to obtain a plasma sample (2000 g, 5 min under 4° C.) within 15 minutes. The brain collection was performed as follows: a mid-line incision was made in the animal's scalp and the skin was retracted. Using small bone cutters and rongeurs, the skull overlying the brain was removed. The brain was removed using a spatula and the brain rinsed with cold saline. The brain was placed in screw-top tubes, and the tubes were stored at −70° C. until analysis. The IV dosing solution was prepared in 50 mM citrate buffer (pH 4.0) at 0.6 mg/mL.
Plasma Sample Preparation:
An aliquot of 30 μL sample was added to […] containing 50 ng/mL IS (Dexamethasone). The mixture was vortexed for 5 min and centrifuged at 14,000 rpm for 5 min. An aliquot of 5 μL supernatant was injected for LC-MS/MS analysis.
Brain Sample Preparation:
An aliquot of 30 μL brain homogenate (brain:PBS=1:3, w/v) sample was added to 150 μL IS in MeCN (Dexamethasone, 50 ng/mL). The mixture was vortexed for 5 min and centrifuged at 14,000 rpm for 5 min. An aliquot of 5 μL supernatant was injected for LC-MS/MS analysis.
The sample analysis was performed on LCMS/MS-003 (API4000, triple quadruple) under the following conditions: positive ion, ESI, MRM detection using dexamethasone as internal standard. HPLC conditions: mobile phase A: H2O (0.025% formic acid (FA) with 1 mM NH4OAc); mobile phase B: MeOH (0.025% FA with 1 mM NH4OAc) on Waters X-Bridge C18 (2.1×50 mm, 2.5 μm) column at 60° C.
A similar experiment was performed with 4 time points taken from 0-24 h.

[2] = 0-24 h, 4 time points, read-out: Kp (brain/plasma drug concentration ratio)
[3] = mouse brain, 0-24 h, 4 time points, read-out: AUClast (b) (area under the brain drug concentration-time curve)
[4] = mouse plasma, 0-24 h, 4 time points, read-out: AUClast (p) (area under the plasma drug concentration-time curve)
[5] = 0-1 h, 3 time points, read-out: Kp (brain/plasma drug concentration ratio, AUC last(b)/AUC last(p))
[6] = mouse brain, time zero to 1 hr, 3 time points, read-out: AUClast (b) (area under the brain drug concentration-time curve)
[7] = mouse plasma, time zero to 1 hr, 3 time points, read-out: AUClast (p) (area under the plasma drug concentration-time curve)

T1 sequence (P61073 whole entry): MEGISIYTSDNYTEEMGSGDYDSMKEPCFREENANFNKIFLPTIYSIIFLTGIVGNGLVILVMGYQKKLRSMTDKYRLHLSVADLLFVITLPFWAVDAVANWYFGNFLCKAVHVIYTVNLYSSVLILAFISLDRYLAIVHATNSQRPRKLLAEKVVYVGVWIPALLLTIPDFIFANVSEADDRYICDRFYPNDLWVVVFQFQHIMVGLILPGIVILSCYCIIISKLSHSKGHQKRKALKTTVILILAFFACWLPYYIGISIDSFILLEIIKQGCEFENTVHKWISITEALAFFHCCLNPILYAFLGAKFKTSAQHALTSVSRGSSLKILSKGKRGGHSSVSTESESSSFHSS

Row | Papp A→B at 90 min, 10 μM (in vitro) [×10⁻⁶ cm/s] | Papp B→A at 90 min, 10 μM (in vitro) [×10⁻⁶ cm/s] | efflux ratio at 90 min, 10 μM (in vitro) | IC50 (CXCR4 (U87.CXCR4 cells)) [nM] | Kp [1, 2] | Kp uu ([1]; 0-24 h, 4 time points) | clearance ([1]; 0-24 h, 4 time points) [mL/min/kg] | half-life ([1]; 0-24 h, 4 time points) [min] | AUC(0-t) [1, 3] [ng·h/mL] | AUC(0-t) [1, 4] [ng·h/mL] | Kp [1, 5] | Kp uu ([1]; 0-1 h, 3 time points) | clearance ([1]; 0-1 h, 3 time points) [mL/min/kg] | half-life ([1]; 0-1 h, 3 time points) [min] | AUC(0-t) [1, 6] [ng·h/mL] | AUC(0-t) [1, 7] [ng·h/mL] | SMILES
1 | 10 to 30 | 10 to 30 | 0.1 to 10 | 100 to 1000 | 37.2 | 5.95 | 235 | 16.5 | 7260 | 195 |  |  |  |  |  |  | Cc1cccnc1C1CCCN1Cc1nc2cccc(N3CCN(C4CC4)CC3)c2[nH]1 (stereo not drawn) [Compound I-31]
2 | 10 to 30 | 10 to 30 | 0.1 to 10 | 0.01 to 100 |  |  |  |  |  |  | 1.21 | 0.48 | 25.5 | 232 | 518 | 427 | CN1CCN(c2c(CN3CCCC3c3ccccn3)nc3ccc(F)cn23)CC1 (stereo not drawn) [Compound I-63]
3 | 10 to 30 | 10 to 30 | 0.1 to 10 | 100 to 1000 |  |  |  |  |  |  | 1.86 | 1.11 | 140 | 16.1 | 742 | 400 | CN1CCN(c2cccc3[nH]c(CN4CCCC4c4ncccc4Cl)nc23)CC1 (stereo not drawn) [Compound I-26]
4 | 10 to 30 | 10 to 30 | 0.1 to 10 | 0.01 to 100 |  |  |  |  |  |  | 0.77 | 0.22 | 33.2 | 320 | 210 | 271 | CN1CCN(c2c(CN3CCCC3c3ccccn3)nc3ccccn23)CC1 (stereo not drawn) [Compound I-41]
5 | 10 to 30 | 10 to 30 | 0.1 to 10 | 0.01 to 100 |  |  |  |  |  |  | 1.41 | 1.99 | 25 | 218 | 736 | 523 | CN1CCN(c2c(CN3CCCC3c3nccs3)nc3ccccn23)CC1 (stereo not drawn) [Compound I-70]
6 | 10 to 30 | 10 to 30 | 0.1 to 10 | 100 to 1000 | 0.53 | 0.07 | 66.8 | 257 | 394 | 737 |  |  |  |  |  |  | Cc1cccnc1C1CCCN1Cc1cn2c(N3CCN(C)C4(CC4)C3)cccc2n1 (stereo not drawn) [Compound I-29]
